Paper PMC11990524, “Design and Synthesis of Novel 6-(Substituted phenyl)-[1,3]dioxolo[4′,5′:4,5]benzo[1,2-d]thiazole Compounds as Tyrosinase Inhibitors: In Vitro and In Vivo Insights” (Molecules, 2025)
Where two headings read alike, the source gives them in different places.

Tests used:
[1] = DPPH radical scavenging assay; conditions: 500 μM; 30 min in the dark
Procedure: DPPH radical scavenging activity was determined by mixing the DPPH solution with compounds 1–13, leaving it in the dark at 20 °C for 30 min, and measuring the optical density at 517 nm. Ascorbic acid (AA) was used as a positive control to compare the scavenging activity. All test samples were used at 500 μM.
An aliquot (20 μL) of test sample (compounds 1–13 and ascorbic acid [positive control]; 5 mM) in DMSO and 180 μL DPPH solution (0.2 mM) in methanol were mixed in each well of a 96-well plate. The mixed solution was kept in the dark at 18 °C for 30 min. A VE microplate reader was used to measure the optical density of each well at 517 nm.

[2] = biological target: mushroom tyrosinase (Agaricus bisporus, UniProt C7FF04); assay: Mushroom tyrosinase inhibitory activity assay (L-dopa or L-tyrosine as substrate); assay type: biochemical; conditions: 50 μM, read-out: Inhibition (%, Mean ± SEM) at 50 μM (converted)
Procedure: In the inhibition experiments, L-dopa and L-tyrosine were used as enzyme substrates.
The plate was incubated at 37 °C for 30 min, and absorbance of dopachrome formation was recorded spectrophotometrically at 475 nm using a VersaMax® Elisa (VE) microplate reader (Molecular Devices, San Jose, CA, USA) to determine tyrosinase inhibition activity. A VE microplate reader was used in all subsequent experiments to measure optical density. All experiments were carried out independently three times.

[3] = ABTS radical scavenging assay; conditions: 100 μM
Procedure: The ABTS^+ radical solution was obtained by mixing ABTS and potassium persulfate, an oxidizing reagent, and test samples (1–13 and Trolox [positive control]; final concentration: 100 μM) were added to determine their ABTS^+ radical scavenging ability by measuring the optical density at 732 nm.
To prepare ABTS^•+ stock solution, equal amounts of ABTS (14 mM aqueous solution) and K2S2O8 (4.9 mM aqueous solution) were mixed and stored in the dark at 18 °C for 15 h. The prepared ABTS^•+ solution was diluted in ethanol to adjust the absorbance to 0.7 ± 0.01 at 732 nm. The test samples (Trolox [positive control] and compounds 1–13) were dissolved in a cosolvent of ethanol and DMSO (10:1 [v/v]). The adjusted ABTS^•+ solution (90 μL) and test sample (10 μL) were added to each well of a 96-well plate, and the plate was stored in a dark place at 18 °C for 2 min. The optical density was measured at 732 nm every min for 10 min. The test sample solutions were tested at a final concentration of 100 μM. The percentage of radical scavenging activity was calculated as follows: % Radical scavenging activity = 100 × [(Absc − Abst)/Absc], where Abst and Absc are optical densities of the test sample and control, respectively.

mushroom tyrosinase, sequence (C7FF04 2-392): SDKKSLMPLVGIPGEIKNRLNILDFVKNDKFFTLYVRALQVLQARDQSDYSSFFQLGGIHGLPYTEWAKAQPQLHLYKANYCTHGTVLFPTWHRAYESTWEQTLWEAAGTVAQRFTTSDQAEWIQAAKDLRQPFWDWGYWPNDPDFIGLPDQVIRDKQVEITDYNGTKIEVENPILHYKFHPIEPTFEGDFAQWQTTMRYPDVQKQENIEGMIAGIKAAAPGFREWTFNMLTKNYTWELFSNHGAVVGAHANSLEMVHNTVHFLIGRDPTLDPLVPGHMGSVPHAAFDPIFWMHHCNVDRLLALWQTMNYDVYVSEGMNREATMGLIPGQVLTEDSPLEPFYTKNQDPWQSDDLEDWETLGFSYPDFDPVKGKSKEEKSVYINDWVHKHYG

| Structure (SMILES) | inhibition at 50 µM ([2]; substrate L-dopa) [%] | inhibition at 50 µM ([2]; substrate L-tyrosine) [%] | DPPH radical scavenging (inhibition) [1] [%] | ABTS^+ radical scavenging activity (inhibition rate) [3] [%] |
| --- | --- | --- | --- | --- |
| O=C1O[C@H]([C@@H](O)CO)C(O)=C1O [AA, Ascorbic acid, reference compound] |  |  | 96 |  |
| CCOc1cc(-c2nc3cc4c(cc3s2)OCO4)ccc1O [Compound 2, 4-([1,3]Dioxolo[4′,5′:4,5]benzo[1,2-d]thiazol-6-yl)-2-ethoxyphenol] | 50.3 | 14.9 |  | > 77 |
| Oc1c(Br)cc(-c2nc3cc4c(cc3s2)OCO4)cc1Br [Compound 7, 4-([1,3]Dioxolo[4′,5′:4,5]benzo[1,2-d]thiazol-6-yl)-2,6-dibromophenol] | 29.7 | 17.7 |  |  |
| COc1cc(-c2nc3cc4c(cc3s2)OCO4)cc(OC)c1O [Compound 10, 4-([1,3]Dioxolo[4′,5′:4,5]benzo[1,2-d]thiazol-6-yl)-2,6-dimethoxyphenol] | 53.2 | 0.54 |  | 96 |
| COc1cc(-c2nc3cc4c(cc3s2)OCO4)cc(OC)c1OC [Compound 13, 6-(3,4,5-Trimethoxyphenyl)-[1,3]dioxolo[4′,5′:4,5]benzo[1,2-d]thiazole] | 5 | 16.6 |  |  |
| Cc1c(C)c2c(c(C)c1O)CCC(C)(C(=O)O)O2 (stereo not drawn) [Trolox, reference compound] |  |  |  | 99 |

Now from value to molecule, other results behind:

| inhibition at 50 µM ([2]; substrate L-dopa) [%] | inhibition at 50 µM ([2]; substrate L-tyrosine) [%] | Structure (SMILES) | DPPH radical scavenging (inhibition) [1] [%] | ABTS^+ radical scavenging activity (inhibition rate) [3] [%] |
| --- | --- | --- | --- | --- |
| 1.7 | 25.9 | COc1cc(-c2nc3cc4c(cc3s2)OCO4)ccc1O [Compound 1, 4-([1,3]Dioxolo[4′,5′:4,5]benzo[1,2-d]thiazol-6-yl)-2-methoxyphenol] |  | > 77 |
| 17.2 | 11.1 | COc1ccc(-c2nc3cc4c(cc3s2)OCO4)cc1 [Compound 3, 6-(4-Methoxyphenyl)-[1,3]dioxolo[4′,5′:4,5]benzo[1,2-d]thiazole] |  |  |
| 63 | 25.5 | COc1ccc(-c2nc3cc4c(cc3s2)OCO4)cc1O [Compound 4, 5-([1,3]Dioxolo[4′,5′:4,5]benzo[1,2-d]thiazol-6-yl)-2-methoxyphenol] |  | > 77 |
| 27.9 | 17 | Oc1ccc(-c2nc3cc4c(cc3s2)OCO4)cc1Br [Compound 6, 4-([1,3]Dioxolo[4′,5′:4,5]benzo[1,2-d]thiazol-6-yl)-2-bromophenol] |  |  |
| 18.6 | 4.95 | Oc1ccc(-c2nc3cc4c(cc3s2)OCO4)cc1O [Compound 8, 4-([1,3]Dioxolo[4′,5′:4,5]benzo[1,2-d]thiazol-6-yl)benzene-1,2-diol] | 82 | 99 |
| 19.5 | 0.82 | COc1ccc(-c2nc3cc4c(cc3s2)OCO4)cc1OC [Compound 11, 6-(3,4-Dimethoxyphenyl)-[1,3]dioxolo[4′,5′:4,5]benzo[1,2-d]thiazole] |  |  |
| 32.8 | 10.6 | COc1ccc(-c2nc3cc4c(cc3s2)OCO4)c(OC)c1 [Compound 12, 6-(2,4-Dimethoxyphenyl)-[1,3]dioxolo[4′,5′:4,5]benzo[1,2-d]thiazole] |  |  |
